Reference: BindingDB's records for patent US12509446 (Rottapharm Biotech, 2025)
pIC50: −log10 of the molar value.

How the values were obtained:
[1] = target: Vascular endothelial growth factor receptor 2 (Homo sapiens, UniProt P35968); test: In Vitro Kinase Activity Assay
Description: Table 12: The VEGFR2 kinase inhibitory activity of representative examples of compounds of Formula (I) assays was evaluated in Eurofins Cerep (France). The concentration range of the inhibitors under investigation was from 10−8 M up to 10−5 M final concentration. Some compounds were re-tested in a concentration-range starting from 10−9 M. The results are expressed as a percent of control activity (in the absence of test compound) and the IC50 values were determined by non-linear regression analysis of the inhibition/concentration curves generated with mean replicate values.

[2] = target: Tyrosine-protein kinase Fyn (Homo sapiens, UniProt P06241); test: In Vitro Kinase Activity Assay
Sequence of Tyrosine-protein kinase Fyn (P06241 whole entry): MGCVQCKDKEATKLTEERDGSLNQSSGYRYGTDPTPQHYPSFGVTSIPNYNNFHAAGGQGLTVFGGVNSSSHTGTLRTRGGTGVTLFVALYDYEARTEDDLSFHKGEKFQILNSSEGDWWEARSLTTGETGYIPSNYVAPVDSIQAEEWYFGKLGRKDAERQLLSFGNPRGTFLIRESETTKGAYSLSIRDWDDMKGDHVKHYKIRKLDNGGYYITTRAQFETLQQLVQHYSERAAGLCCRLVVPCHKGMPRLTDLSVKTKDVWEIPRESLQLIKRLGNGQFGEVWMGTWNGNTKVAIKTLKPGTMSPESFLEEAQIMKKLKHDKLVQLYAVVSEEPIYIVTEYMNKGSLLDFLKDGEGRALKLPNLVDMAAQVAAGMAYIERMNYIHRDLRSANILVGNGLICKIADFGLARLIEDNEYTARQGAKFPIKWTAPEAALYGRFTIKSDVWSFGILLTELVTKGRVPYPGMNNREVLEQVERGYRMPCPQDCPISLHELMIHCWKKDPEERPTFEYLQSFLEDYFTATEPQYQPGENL
Description: Table 11: The Fyn kinase inhibitory activity of representative examples of compounds of Formula (1) was evaluated by Z′-LYTE™ Kinase Assay Platform (Invitrogen). Compounds were evaluated towards active Fyn (full length active, molecular weight 87.1 kDa; Invitrogen). […] Samples representing the 0% inhibition (or total enzymatic activity) were in the presence of compound diluent (1% DMSO final in Reaction Buffer 50 mMHepes, 10 mM MgCl2, 1 mM EGTA, 0.01% Brij-35, pH 7.5). The kinase reaction was carried out in a total volume of 10 μl, for 60 minutes at 25° C. The 0% Phosphorylation (i.e. no ATP) and 100% Phosphorylation Assay Controls, included in each plate, allowed to calculate the percent phosphorylation achieved in the specific reaction well. Results are expressed as percentage of inhibition and the IC50 values were calculated by non-linear curve fitting using GraphPad™ Prism software (version 6 for Windows).

Sequence of Vascular endothelial growth factor receptor 2 (P35968 whole entry): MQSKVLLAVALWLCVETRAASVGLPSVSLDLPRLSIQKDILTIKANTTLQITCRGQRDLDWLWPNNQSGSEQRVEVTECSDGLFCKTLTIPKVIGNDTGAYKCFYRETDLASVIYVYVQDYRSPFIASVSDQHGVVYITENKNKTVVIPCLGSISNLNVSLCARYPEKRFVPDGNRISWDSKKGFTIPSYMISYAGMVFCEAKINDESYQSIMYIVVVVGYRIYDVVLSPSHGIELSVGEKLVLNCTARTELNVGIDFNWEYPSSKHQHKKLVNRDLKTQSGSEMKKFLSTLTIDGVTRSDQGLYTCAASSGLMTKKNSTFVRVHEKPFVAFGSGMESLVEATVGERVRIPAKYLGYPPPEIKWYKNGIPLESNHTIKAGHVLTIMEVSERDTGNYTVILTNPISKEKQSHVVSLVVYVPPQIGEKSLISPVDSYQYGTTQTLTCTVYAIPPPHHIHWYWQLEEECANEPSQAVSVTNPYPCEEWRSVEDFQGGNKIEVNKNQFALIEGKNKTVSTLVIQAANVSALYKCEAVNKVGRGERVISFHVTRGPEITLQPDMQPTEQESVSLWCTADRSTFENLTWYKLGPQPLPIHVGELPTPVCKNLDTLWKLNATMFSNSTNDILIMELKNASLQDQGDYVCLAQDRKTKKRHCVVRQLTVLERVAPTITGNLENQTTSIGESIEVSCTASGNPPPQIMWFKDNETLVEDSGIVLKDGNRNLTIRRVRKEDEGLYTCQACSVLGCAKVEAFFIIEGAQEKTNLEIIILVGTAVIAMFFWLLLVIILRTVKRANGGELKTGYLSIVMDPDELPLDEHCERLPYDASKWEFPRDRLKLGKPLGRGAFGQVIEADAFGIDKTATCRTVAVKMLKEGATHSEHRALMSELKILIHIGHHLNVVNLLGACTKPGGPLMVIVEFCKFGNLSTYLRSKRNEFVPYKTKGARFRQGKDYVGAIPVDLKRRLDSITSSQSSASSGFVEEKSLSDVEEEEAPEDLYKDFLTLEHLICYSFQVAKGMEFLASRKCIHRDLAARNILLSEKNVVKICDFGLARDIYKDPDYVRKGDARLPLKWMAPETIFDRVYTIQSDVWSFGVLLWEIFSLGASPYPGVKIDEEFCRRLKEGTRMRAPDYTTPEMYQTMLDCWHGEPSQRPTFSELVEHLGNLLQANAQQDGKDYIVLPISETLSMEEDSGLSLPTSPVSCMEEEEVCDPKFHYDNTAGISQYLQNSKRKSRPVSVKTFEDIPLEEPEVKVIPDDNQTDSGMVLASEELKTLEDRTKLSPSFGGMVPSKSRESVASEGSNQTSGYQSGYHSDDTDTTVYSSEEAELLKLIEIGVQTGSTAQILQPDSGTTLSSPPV

Row | SMILES | pIC50 [1] | pIC50 [2]
1 | Cc1ccc(NC(=O)c2cccc(S(C)(=O)=O)c2)cc1CCc1cc(Nc2cnccn2)[nH]n1 [US12509446, Compound 1] | > 8.00 | 7.44
2 | Cc1nc(Nc2cc(CCc3cc(NC(=O)c4cccc(C(F)(F)F)c4)ccc3F)n[nH]2)cc(N2CCN(CCO)CC2)n1 [US12509446, Compound 30] | > 8.00 | 8.22
3 | CCN1CCN(c2cc(Nc3cc(CCc4cc(NC(=O)c5cccc(C(F)(F)F)c5)ccc4F)n[nH]3)nc(C)n2)CC1 [US12509446, Compound 29] | > 8.00 | 7.82

The remaining lines, values ahead:

Row | pIC50 [1] | pIC50 [2] | SMILES
4 | > 8.00 | 8.10 | Cc1nc(Nc2cc(CCc3ccc(F)c(NC(=O)c4cccc(C(F)(F)F)c4)c3)n[nH]2)cc(N2CCN(CCO)CC2)n1 [US12509446, Compound 44]
5 | > 8.00 | 7.74 | Cc1nc(Nc2cc(CCc3ccc(F)c(NC(=O)c4cccc(C(F)(F)F)c4)c3)n[nH]2)cc(N2CC(O)C2)n1 [US12509446, Compound 46]
6 | > 8.00 | 7.66 | CCN1CCN(c2cc(Nc3cc(CCc4ccc(F)c(NC(=O)c5cccc(C(F)(F)F)c5)c4)n[nH]3)nc(C)n2)CC1 [US12509446, Compound 45]
7 | 7.74 | 8.00 | Cc1nc(Nc2cc(CCc3cc(NC(=O)c4cccc(C(F)(F)F)c4)ccc3F)n[nH]2)cc(N2CC(O)C2)n1 [US12509446, Compound 31]
